Measurements reported in publication PMC7393355, “A FRET-based screening method to detect potential inhibitors of the binding of CNNM3 to PRL2” (Scientific Reports, 2020).

Tests used:
[1] = system: binding of CNNM3-YPet and CyPet-PRL2 (CNNM3-PRL2 complex); assay: FRET-based inhibition test of the binding of CNNM3-YPet and CyPet-PRL2; design: species or system human; details: CNNM3-YPet 200 nM, CyPet-PRL2 200 nM, n = 6
Protocol: FRET measurements were conducted in TBS (50 mM Tris–HCl (pH 8.0) and 150 mM NaCl). Proteins were mixed in 96-well plates and incubated at R.T. for 1 h. Fluorescence intensities were measured using an excitation wavelength of 435 nm and an emission wavelength of 530 nm with a Cytation 3 (BioTek).
The emission spectra were measured with each component at 200 nM using the Cytation 3 (BioTek) with 435 nm excitation (Supplementary Fig. 2), and the original data are shown in Supplementary Table 1. The FRET intensity was calculated by Eq. (1).1 IFRET=IA-raw-Dleakage-Adirect where IA-raw is the intensity measured at 530 nm with 435 nm excitation, Dleakage is the leakage of the donor emission into the acceptor wavelength (530 nm) upon donor excitation, and Adirect is the direct excitation of the acceptor with the donor wavelength (435 nm).
The inhibition of complex formation was assayed by pre-incubating the binding partner (200 nM) with inhibitory factors (1, 10 μM) for 20 min at R.T., followed by addition of the other protein (200 nM) (Figs. 3B, 4C). The effects of divalent cations (10 mM) and nucleotides (3 mM) were also assayed similarly (Fig. 5).
The peptides for the peptide inhibition test were synthesized by Shanghai Dechi Biosciences (Fig. 6C,D). The peptide sequences were as follows: peptide 1, IVQKVNNEGEGDPFYEVLG; peptide 2, […] (an S–S bond was formed between the cysteine residues, as verified by HPLC and mass spectrometry). The peptides were dissolved in TBS buffer at 10 mM before use.
FRET data were evaluated by subtracting backgrounds (fluorescence intensities of CyPet-PRL2, CNNM3-YPet and a blank well). All data analysis was performed using GraphPad Prism 6 (GraphPad Software) with the methods described in each legend.

[2] = system: PRL2; assay: Isothermal titration calorimetry (ITC) with PRL2; assay type: binding, human; details: 25 °C, cell 20 μM PRL2, syringe 200 μM ligand, 20 mM Tris-HCl pH 7.0, 50 mM NaCl, 1 mM TCEP, 2% DMSO, repeated twice
Protocol: ITC experiments were performed by ITC200 (GE Healthcare, USA). PRL2 and CNNM3 CBS domain proteins were purified in Buffer A (20 mM Tris–HCl (pH 7.0), 50 mM NaCl, and 1 mM TCEP). JMS-053 (Aobious, USA) was dissolved in 100% DMSO at 10 mM, further diluted to 200 μM with Buffer A. The ITC cell was thermally equilibrated at 25 °C and then filled with 250 μl of 20 μM PRL2, while the syringe was filled with 40 μl of 200 μM JMS-053 or CNNM3 CBS protein. In the case of JMS-053, 2% DMSO at a final concentration was added into PRL2 protein solution. Data were analysed by Microcal Origin software.

Compound: LAICQRVNNEGEGDPFYEVCGIVT (an S–S bond was formed between the cysteine residues (disulfide) [peptide 2, longer CNNM CBS loop peptide with two residues mutated to cysteine to form an S–S bond]
- inhibition of complex formation ([1]; peptide 100 μM): 20%
- inhibition of complex formation ([1]; peptide 500 μM): 50%

Compound: Nc1ncnc2c1ncn2[C@@H]1O[C@H](COP(=O)(O)OP(=O)(O)O)[C@@H](O)[C@H]1O [ADP, reference compound]
- alteration of FRET intensity by nucleotide ([1]; 3 mM nucleotide): 9.6%

Compound: IVQKVNNEGEGDPFYEVLG [peptide 1, shorter synthesized peptide derived from the CNNM CBS loop]
- effect of peptide on complex formation (in words) ([1]; peptide 100 μM): failed to interrupt complex formation

Compound: [Zn+2] [Zn^2+]
- decrease of FRET intensity by divalent cation ([1]; 10 mM divalent cation): 90.3%

Compound: N=C1C(=O)NC(=O)c2cc(-c3ccccc3)sc21 [JMS-053, reference compound]
- interaction with PRL2 by ITC (in words) [2]: no interaction
- effect on the interaction between CNNM3 and PRL2 (in words) [1]: no effect

Compound: [Mg+2] [Mg^2+]
- effect of divalent cation on FRET intensity (in words) ([1]; 10 mM divalent cation): no effect on the FRET intensity
